In ChEMBL document CHEMBL1201862, “PubChem BioAssay data set” (2004):
Activity calls are given as the source filed them.

Legend:
[1] = target: T1, Oxysterols receptor LXR-beta (Homo sapiens, UniProt P55055); format: functional, cell-based;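 further: Cell-based luminescence dose-response assay of agonist activity at LXR, run as a confirmatory counterscreen to a daf-12 agonist screen; HEK293 cells with Gal4-LXR fusion and GAL4-driven luciferase reporter; agonist potency from rising luciferase signal of a Gal4-LXR reporter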
T1 sequence (P55055 whole entry): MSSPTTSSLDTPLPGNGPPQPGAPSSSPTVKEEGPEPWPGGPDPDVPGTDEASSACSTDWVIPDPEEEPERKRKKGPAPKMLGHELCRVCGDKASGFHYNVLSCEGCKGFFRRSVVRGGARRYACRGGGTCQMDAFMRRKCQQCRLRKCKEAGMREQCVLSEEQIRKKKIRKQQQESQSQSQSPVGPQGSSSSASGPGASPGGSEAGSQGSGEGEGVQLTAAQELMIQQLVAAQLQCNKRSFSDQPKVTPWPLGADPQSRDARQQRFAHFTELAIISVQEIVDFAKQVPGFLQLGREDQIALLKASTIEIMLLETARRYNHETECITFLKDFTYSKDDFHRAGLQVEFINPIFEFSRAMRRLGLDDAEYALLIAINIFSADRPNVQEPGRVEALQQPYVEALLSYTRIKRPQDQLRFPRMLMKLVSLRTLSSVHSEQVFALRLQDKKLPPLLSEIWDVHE

[2] = target: T2, Sentrin-specific protease 8 (Homo sapiens, UniProt Q96LD8); format: functional;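 further: luminescence read-out of SENP8 inhibition, dose-response confirmation following an ultra-high-throughput screen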
T2 sequence (Q96LD8 whole entry): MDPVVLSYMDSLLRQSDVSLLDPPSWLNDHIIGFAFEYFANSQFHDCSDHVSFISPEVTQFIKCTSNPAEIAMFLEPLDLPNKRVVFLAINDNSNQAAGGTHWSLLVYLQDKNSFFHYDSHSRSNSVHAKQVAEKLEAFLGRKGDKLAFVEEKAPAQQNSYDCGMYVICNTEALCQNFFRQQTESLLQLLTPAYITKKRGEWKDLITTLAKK

[3] = target: T3, Heat shock factor protein 1 (Mus musculus, UniProt P38532); assay: enhancement of HSF1-driven luciferase signal – cell-based, NIH3T3, luminescence, dose retest, confirmation (AID 435004); format: functional;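 further: stress induced by proteasome inhibitor MG132 added 30 min after compound; luciferase reporter driven by HSF1 response element in NIH3T3 cells; actives raise luminescence as potentiators of the MG132 stress response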
T3 sequence (P38532 whole entry): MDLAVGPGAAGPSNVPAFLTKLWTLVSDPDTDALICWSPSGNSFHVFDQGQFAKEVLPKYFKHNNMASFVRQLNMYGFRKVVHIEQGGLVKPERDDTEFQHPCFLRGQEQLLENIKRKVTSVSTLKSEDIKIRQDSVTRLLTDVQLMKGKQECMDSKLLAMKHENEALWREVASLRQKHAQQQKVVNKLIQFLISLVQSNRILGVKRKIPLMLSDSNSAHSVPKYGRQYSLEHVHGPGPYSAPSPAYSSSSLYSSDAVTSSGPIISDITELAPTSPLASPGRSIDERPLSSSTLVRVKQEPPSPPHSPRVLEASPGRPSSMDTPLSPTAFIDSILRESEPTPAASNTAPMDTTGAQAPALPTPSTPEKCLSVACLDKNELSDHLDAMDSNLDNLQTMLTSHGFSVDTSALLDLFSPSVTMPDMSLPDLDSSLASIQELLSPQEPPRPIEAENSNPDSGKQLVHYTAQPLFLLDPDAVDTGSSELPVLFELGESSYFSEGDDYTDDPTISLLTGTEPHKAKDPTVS

[4] = target: T4, Sentrin-specific protease 6 (Homo sapiens, UniProt Q9GZR1); format: functional;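 further: Luminescence-based dose-response confirmatory assay of SENP6 inhibition, following up an ultra-high-throughput screen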
T4 sequence (Q9GZR1 whole entry): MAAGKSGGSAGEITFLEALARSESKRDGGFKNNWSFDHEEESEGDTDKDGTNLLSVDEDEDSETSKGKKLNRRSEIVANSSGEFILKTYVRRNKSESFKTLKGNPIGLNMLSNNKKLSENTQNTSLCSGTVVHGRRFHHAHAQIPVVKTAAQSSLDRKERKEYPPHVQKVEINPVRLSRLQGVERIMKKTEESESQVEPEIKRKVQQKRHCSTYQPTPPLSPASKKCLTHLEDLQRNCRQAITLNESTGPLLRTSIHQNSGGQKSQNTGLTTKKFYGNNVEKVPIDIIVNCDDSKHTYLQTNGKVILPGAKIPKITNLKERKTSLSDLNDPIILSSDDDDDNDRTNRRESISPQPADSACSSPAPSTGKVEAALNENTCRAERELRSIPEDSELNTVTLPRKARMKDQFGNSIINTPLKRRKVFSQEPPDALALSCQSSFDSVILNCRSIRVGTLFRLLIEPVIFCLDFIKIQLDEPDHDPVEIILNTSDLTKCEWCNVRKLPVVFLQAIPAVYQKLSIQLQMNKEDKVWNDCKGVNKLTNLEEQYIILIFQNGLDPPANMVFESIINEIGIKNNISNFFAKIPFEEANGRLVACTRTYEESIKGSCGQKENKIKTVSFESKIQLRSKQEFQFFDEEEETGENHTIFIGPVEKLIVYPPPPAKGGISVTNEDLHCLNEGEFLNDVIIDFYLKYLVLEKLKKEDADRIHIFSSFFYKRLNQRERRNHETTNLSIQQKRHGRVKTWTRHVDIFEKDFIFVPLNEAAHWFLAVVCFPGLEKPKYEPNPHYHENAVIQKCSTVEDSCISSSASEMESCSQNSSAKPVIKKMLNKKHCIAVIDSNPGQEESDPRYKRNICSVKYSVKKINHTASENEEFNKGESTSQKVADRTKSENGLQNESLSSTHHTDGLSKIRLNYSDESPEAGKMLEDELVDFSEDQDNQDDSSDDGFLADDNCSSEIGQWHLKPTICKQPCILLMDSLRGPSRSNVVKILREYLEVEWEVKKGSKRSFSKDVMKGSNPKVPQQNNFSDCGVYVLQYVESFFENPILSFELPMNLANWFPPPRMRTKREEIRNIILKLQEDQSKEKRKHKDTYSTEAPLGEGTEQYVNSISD

[5] = target: T5, Sentrin-specific protease 7 (Homo sapiens, UniProt Q9BQF6); format: functional;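 further: Luminescence-based dose-response confirmation of ultra-high-throughput screening hits, measuring inhibition of SENP7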
T5 sequence (Q9BQF6 whole entry): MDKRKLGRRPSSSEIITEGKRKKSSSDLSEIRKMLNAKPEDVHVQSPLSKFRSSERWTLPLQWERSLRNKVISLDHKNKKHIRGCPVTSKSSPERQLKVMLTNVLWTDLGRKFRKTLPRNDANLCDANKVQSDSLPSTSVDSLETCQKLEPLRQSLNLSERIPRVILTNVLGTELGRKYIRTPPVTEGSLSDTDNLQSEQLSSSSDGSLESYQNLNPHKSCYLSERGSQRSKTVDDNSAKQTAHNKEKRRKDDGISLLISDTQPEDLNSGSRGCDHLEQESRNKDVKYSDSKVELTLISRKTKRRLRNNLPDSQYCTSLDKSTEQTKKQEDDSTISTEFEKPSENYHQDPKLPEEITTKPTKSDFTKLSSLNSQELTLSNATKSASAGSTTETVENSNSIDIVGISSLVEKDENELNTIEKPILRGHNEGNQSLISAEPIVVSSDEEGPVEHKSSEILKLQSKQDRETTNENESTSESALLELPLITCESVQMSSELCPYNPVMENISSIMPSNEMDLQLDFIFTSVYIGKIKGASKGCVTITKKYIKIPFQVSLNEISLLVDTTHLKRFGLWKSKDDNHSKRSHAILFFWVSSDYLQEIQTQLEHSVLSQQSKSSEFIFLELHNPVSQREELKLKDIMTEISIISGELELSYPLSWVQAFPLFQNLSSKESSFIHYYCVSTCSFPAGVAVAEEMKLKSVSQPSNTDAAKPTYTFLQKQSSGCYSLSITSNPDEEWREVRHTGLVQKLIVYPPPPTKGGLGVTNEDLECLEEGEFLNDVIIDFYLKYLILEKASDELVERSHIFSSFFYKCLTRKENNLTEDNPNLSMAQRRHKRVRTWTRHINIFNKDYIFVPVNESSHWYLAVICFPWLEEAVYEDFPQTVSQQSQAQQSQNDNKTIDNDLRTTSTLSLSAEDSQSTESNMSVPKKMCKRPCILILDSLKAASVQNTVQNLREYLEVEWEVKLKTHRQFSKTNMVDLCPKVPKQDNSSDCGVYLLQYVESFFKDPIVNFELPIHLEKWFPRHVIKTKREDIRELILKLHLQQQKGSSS

Caspase-3 = target: T6, Caspase-3 (Homo sapiens, UniProt P42574); format: functional;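 further: Dose-response selectivity test against caspase-3 for candidate inhibitors of sentrin-specific proteases (SENPs)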
T6 sequence (P42574 whole entry): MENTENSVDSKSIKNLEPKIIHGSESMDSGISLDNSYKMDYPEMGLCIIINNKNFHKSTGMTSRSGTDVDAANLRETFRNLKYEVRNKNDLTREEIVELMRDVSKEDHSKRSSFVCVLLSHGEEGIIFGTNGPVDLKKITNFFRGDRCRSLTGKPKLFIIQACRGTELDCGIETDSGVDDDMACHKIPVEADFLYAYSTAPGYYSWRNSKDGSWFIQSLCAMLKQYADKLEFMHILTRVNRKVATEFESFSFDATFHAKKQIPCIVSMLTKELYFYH

Transthyretin = Transthyretin (Homo sapiens, UniProt P02766); assay: Luminescence-based cell-based high throughput dose response assay to identify activators of Transthyretin (TTR) transcription.; format: functional
Paired box protein Pax-8 = Paired box protein Pax-8 (Homo sapiens, UniProt Q06710); assay: PAX8 transcriptional activity inhibition in RMG-I – RMG-I cells, luciferase, cherry-pick, dose response (AID 687027); format: functional, cell-based;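 further: luciferase reporter driven by Pax8 target thyroperoxidase promoter measured by SteadyGlo luminescence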
[6] = reduced cellular PGC1a acetyl-lysine signal – cell-based, cherry-picked samples, dose response (AID 720514); format: functional;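 further: potency may reflect raised or lowered acetylation signal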
[7] = HIV-1 AD8 envelope cell-cell fusion blockers – cherry-pick, dose response (AID 652062); format: functional, cell-based;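 further: luciferase signal from cell-cell fusion driven by HIV-1 clade B AD8 Env; potency is for inhibitors of fusion seen as a drop in luminescence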
[8] = growth inhibition of yeast DHODH-expressing 3D7 parasites – SYBR Green, dry powder samples, dose response (AID 1159570); format: functional, cell-based;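 further: parasite growth measured after 72 hours of compound exposure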
[9] = blockers of HIV-1 ZM109 envelope-driven cell-cell fusion – HeLa effector, CEM target cells, luciferase, cherry-pick, dose response (AID 652058); format: functional, cell-based;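 further: luciferase signal from HIV-1 Env mediated cell-cell fusion of effector and target cells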
[10] = growth inhibition of PfATP4-mutant resistant parasites – NITD609-resistant line, SYBR Green, dry powder, dose response (AID 1159571); format: functional, cell-based;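 further: parasites synchronized at ring stage by sorbitol before testing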
[11] = blockers of HIV-1 envelope-mediated cell-cell fusion – cherry-pick, dose response (AID 652057); format: functional, cell-based
[12] = Dd2 malaria parasite growth inhibition potency – SYBR Green, dry powder samples, dose response (AID 1159566); format: functional, cell-based;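 further: potency for growth inhibition with lower SYBR green DNA signal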
[13] = P. falciparum Dd2 growth inhibitors, dose response, SYBR Green, cherry-picked samples (AID 1159567); format: functional, cell-based
[14] = target: Heat shock protein HSP 90-alpha (Homo sapiens, UniProt P07900); format: functional, organism-based
[15] = Fluorescence-based cell-based high throughput dose response assay for inhibitors of the interaction of nucleotide-binding oligomerization domain containing 2 (NOD2) and the receptor-interacting serine-threonine kinase 2 (RIPK2).; format: functional; conditions: Homo sapiens
HeLa = assay: viability loss in HeLa cells – cell-based, ATP luminescence, cherry-pick samples, cytotoxicity control, dose response (AID 687004); format: functional; conditions: Homo sapiens
[16] = reduction of Shn3 3'UTR-driven luciferase in osteoblasts – cell-based, Clone20 osteoblasts, firefly luciferase, cherry-picked, dose response (AID 624132); format: functional;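 further: firefly luciferase luminescence from reporter carrying the Shn3 3'UTR in osteoblasts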
[17] = non-specific 3'UTR reporter inhibition in Clone20-Shn3RL – cell-based, Renilla luciferase, cherry-picked, counter-screen for Shn3 inhibitor project, dose response (AID 624133); format: functional

Paired box protein Pax-8, sequence (Q06710 whole entry): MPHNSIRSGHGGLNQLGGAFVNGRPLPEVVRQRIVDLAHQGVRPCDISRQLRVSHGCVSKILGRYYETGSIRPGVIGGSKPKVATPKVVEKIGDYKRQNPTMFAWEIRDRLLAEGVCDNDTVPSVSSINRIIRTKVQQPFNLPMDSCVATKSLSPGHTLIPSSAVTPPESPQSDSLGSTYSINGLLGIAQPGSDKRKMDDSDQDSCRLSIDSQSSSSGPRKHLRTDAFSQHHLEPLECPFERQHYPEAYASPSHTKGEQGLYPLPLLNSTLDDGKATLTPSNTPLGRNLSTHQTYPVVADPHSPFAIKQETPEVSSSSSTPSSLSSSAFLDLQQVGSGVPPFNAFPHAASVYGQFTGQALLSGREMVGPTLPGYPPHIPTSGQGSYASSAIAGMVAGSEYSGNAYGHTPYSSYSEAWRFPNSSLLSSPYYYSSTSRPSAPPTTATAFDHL

c1ccc(N2CC3CCc4ccccc4C3=N2)cc1 (stereo not drawn)
EC50 [1]: > 67.5 µM (inactive)
IC50 [2]: 58.4 µM (active)
EC50 (cells): > 67.5 µM (inactive)
EC50 [3]: 114 µM (active)
IC50 [4]: 30.4 µM (active)
IC50 [5]: 5.67 µM (active)
IC50 (Caspase-3): 23.3 µM (active)

CN(Cc1ccccc1)C(=O)c1[nH]cnc1C(=O)NCC(=O)OC(C)(C)C
EC50 (Transthyretin): > 167 µM (inactive)

Cc1ccc(S(=O)(=O)N(C)C[C@@H]2Oc3cc(C#Cc4ccncc4)ccc3S(=O)(=O)N([C@@H](C)CO)C[C@H]2C)cc1
AC50 (Paired box protein Pax-8): 2.51 µM (active)
AC50 [6]: 2.39 µM (active)

COc1ccc(S(=O)(=O)Nc2ccc3c(c2)CC(=O)N([C@@H](C)CO)C[C@H](C)[C@H](CN(C)S(=O)(=O)c2ccc(C)cc2)O3)cc1
AC50 [7]: 33.9 µM (active)
AC50 [8]: 928 nM (active)
AC50 [9]: 23.8 µM (active)
AC50 [10]: 553 nM (active)
AC50 [11]: 3.56 µM (active)
AC50 [12]: 563 nM (active)
AC50 [13]: 1.7 µM (active)

CC(=O)OC1(C)CC(C)C(=O)C(C(O)CC2CC(=O)NC(=O)C2)C1 (stereo not drawn)
AC50 [14]: < 195 nM (active)
IC50 [15]: 49.8 µM (inactive)
AC50 (HeLa): 14.5 µM (active)
AC50 [16]: < 260 nM (active)
AC50 [6]: < 0.16 µM (active)
AC50 [17]: < 260 nM (active)
